The values that follow come from patent US7018824B2, “Mannosyl transfer with regeneration of GDP-mannose” (The Scripps Research Institute, priority 1993, dated 2006).

Read-outs that look alike come from different tables or passages of the source. Peptide text beside a SMILES is read from it. * marks the point of attachment. X1 = OCC1OC(*)C(O)C(O)C1O; Cbz = O=C(OCc1ccccc1)*

For data set [1], the target named is T1, Recombinant α1,2-Mannosyltransferase (Saccharomyces cerevisiae, UniProt P27809).
T1 construct: made in house; host or cells: E. coli XL1-Blue, periplasmic fraction
T1 sequence (P27809 31-442): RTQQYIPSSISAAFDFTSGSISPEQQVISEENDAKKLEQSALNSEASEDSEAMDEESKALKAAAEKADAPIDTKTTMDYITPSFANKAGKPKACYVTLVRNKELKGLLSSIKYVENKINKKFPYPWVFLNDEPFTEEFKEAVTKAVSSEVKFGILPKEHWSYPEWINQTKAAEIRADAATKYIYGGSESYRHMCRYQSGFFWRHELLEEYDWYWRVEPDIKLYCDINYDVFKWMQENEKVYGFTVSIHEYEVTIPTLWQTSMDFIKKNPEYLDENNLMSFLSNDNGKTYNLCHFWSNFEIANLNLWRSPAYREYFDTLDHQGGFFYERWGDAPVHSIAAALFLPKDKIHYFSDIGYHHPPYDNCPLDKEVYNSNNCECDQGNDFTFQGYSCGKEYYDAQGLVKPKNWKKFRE
The data set is described as follows: Substrate specificity and enzyme kinetics of the mannosyltransfer reaction (GDP-Man + acceptor). The class given is biochemical. Particulars: for Vrelative: calculated as the ratio of Vmax, ManαOMe = 1.0; for substrate (acceptor) quality in words: 150 mM substrate, 3.3 mM GDP-Man. Here is the method: GDP-Man (^14C) (10 mM, 10 mL), α-methyl mannopyranoside (500 mM, 10 μL) and the enzyme solution (10 μL) were mixed in a buffer containing 50 mM HEPES (pH 7.2), 0.1 percent Triton and 10 mM MnCl2. The mixture was incubated at 30.0° C. for one hour. The unreacted GDP-mannose was removed by adding QAE-Sephadex (400 μL) to the solution. After the resin was removed by centrifugation, the radioactivity of the solution was counted in 10 mL of scintillation fluid. Controls were carried out by omitting the acceptor or the enzyme. The substrate specificity was determined in a 30 μL assay solution containing 150 mM substrate, 3.3 mM GDP-Man, overproduced α1,2-ManT, 50 mM HEPES (pH 7.2), 0.1 percent Triton and 10 mM MnCl2. The mixture was incubated at 30° C. for 1 hour and the formation of product was determined by the radioactivity assay. Initial velocities were measured as described in the enzyme assay at various concentrations of acceptors for kinetic studies. From the Lineweaver-Burk plots of the data, Km and Vmax were determined.

The subject of data set [2] is native α1,2-mannosyltransferase. The following applies: native enzyme, literature value for comparison; cited from earlier work.
Data set [3] can be described thus: α1,2-Mannosyltransferase activity assay. The following applies: after Superose and Mono Q FPLC purification; one unit transfers 1.0 μmol mannose per minute at 30° C. The class given is biochemical. On the procedure: GDP-Man (^14C) (10 mM, 10 mL), α-methyl mannopyranoside (500 mM, 10 μL) and the enzyme solution (10 μL) were mixed in a buffer containing 50 mM HEPES (pH 7.2), 0.1 percent Triton and 10 mM MnCl2. The mixture was incubated at 30.0° C. for one hour. The unreacted GDP-mannose was removed by adding QAE-Sephadex (400 μL) to the solution. After the resin was removed by centrifugation, the radioactivity of the solution was counted in 10 mL of scintillation fluid. Controls were carried out by omitting the acceptor or the enzyme.

A short description of another data set: Enzyme stability study. The class given is physicochemical. Particulars: after four days at 20° C. in 100 mM Tris-HCl, 5 mM MgCl2 buffer, pH 7.4. Here is the method:
The enzyme was incubated at room temperature in 100 mM Tris-HCl buffer, 5 mM MgCl2, pH 7.4, containing 0.5 mM dithiothreitol. At different time intervals, 10 μL aliquots were taken and assayed for mannosyltransferase activity as described above.

The nature of data set [4]: Organic solvent effect study on the mannosyltransfer reaction. The data set is classed as biochemical. Here is the method:
GDP-Man (^14C) (10 mM, 10 μL) and methyl mannopyranoside (500 mM, 10 μL) were mixed with a certain volume of an organic solvent and H2O to achieve the desired organic solvent concentration. The enzyme (10 μL) was then added to the mixture. The solution was incubated at 30.0° C. for 1 hour. The enzyme activity was measured as described in the enzyme assay section.

The mark [5] stands for this setting: acceptor with GDP-Man, Lineweaver-Burk plots, 30° C., pH 7.2, read-out: Km (acceptor).
Where [6] appears, read: acceptor substrate of recombinant enzyme, read-out: Km value.

One may read the Km as the concentration of substrate that gives half-maximal velocity. With Cbz-Thr(α-Man)-Val-OMe [Compound 7], the Michaelis constant (Km) in data set [1] (setting [5]) turned out to be 7.8 mM. Also, the Vrelative in data set [1] (acceptor with GDP-Man) is on record as 0.71. The “substrate (acceptor) quality in words” value in data set [1] (recombinant α1,2-ManT) is listed as “comparable with ManαOMe as an acceptor”.

Regarding `O=C[C@@H](O)[C@@H](O)[C@H](O)[C@H](O)CO` [Compound 2, mannose], the Km in data set [2] is 100 mM. Besides, the “Km (acceptor)” value in data set [1] (acceptor with GDP-Man, Lineweaver-Burk plots, 30° C., pH 7.2) was 193 mMO. The Vrelative in data set [1] (acceptor with GDP-Man) was 0.46.

Regarding `CC(NC(=O)CNC(=O)C(NC(=O)C(NC(=O)OCc1ccccc1)C(C)OC1OC(CO)C(O)C(O)C1O)C(C)C)C(N)=O` (stereo not drawn) [Compound 9, Cbz-Thr(α-Man)-Val-Gly-Ala-NH2] (Cbz-T(X1)VGA-NH2; configuration not given here), the Vrelative in data set [1] (acceptor with GDP-Man) is reported as 0.55. Moreover, the “substrate (acceptor) quality in words” value in data set [1] (recombinant α1,2-ManT) is “good substrates”.

In the case of `O=C[C@@H](O)[C@@H](O)[C@@H](O)[C@H](O)CO` [D-talose, reference compound], the “substrate (acceptor) quality in words” value in data set [1] (recombinant α1,2-ManT) is on record as “not substrates”.

For `CO[C@H]1O[C@H](CN=[N+]=[N-])[C@@H](O)[C@H](O)[C@@H]1O` [Compound 5, 6-Azido-6-deoxy-ManαOMe], the Vrelative in data set [1] (acceptor with GDP-Man) is 0.02. Moreover, the “substrate (acceptor) quality in words” value in data set [1] (recombinant α1,2-ManT) was “poor substrates”.

Turning to `COC(=O)C(NC(=O)C(NC(=O)OCc1ccccc1)C(C)OC1OC(CO)C(O)C(O)C1OC1OC(CO)C(O)C(O)C1O)C(C)C` (stereo not shown) [Compound 11, Cbz-Thr(αManα1,2Man)-Val-OMe], the Michaelis-Menten constant (Km) in data set [1] (setting [5]) came out at 26 mM. For the same molecule, the Vrelative in data set [1] (acceptor with GDP-Man) is reported as 0.17.

On to `CO[C@H]1O[C@H](CN)[C@@H](O)[C@H](O)[C@@H]1O` [Compound 6, 6-Amino-6-deoxy-ManαOMe], for which the Vrelative in data set [1] (acceptor with GDP-Man) is reported as 0.07. The “substrate (acceptor) quality in words” value in data set [1] (recombinant α1,2-ManT) is reported as “poor substrates”.

`O=C[C@@H](O)[C@H](O)[C@H](O)[C@H](O)CO` [D-altrose, reference compound]: the “substrate (acceptor) quality in words” value in data set [1] (recombinant α1,2-ManT) is on record as “not substrates”.

As for `CO[C@H]1O[C@H](CO)[C@@H](O)[C@H](O)[C@@H]1O` [Compound 1, α-methylmannopyranoside, reference compound], the Km in data set [1] (setting [6]) and in data set [1] (setting [5]) was 57 mM throughout. Also, in data set [1] (acceptor with GDP-Man), the Vrelative is 1.0.

For the molecule `O=C[C@@H](O)[C@H](O)[C@H](O)CO` [D-arabinose, reference compound], in data set [1] (recombinant α1,2-ManT), the “substrate (acceptor) quality in words” value is listed as “not substrates”.

As for `O=C[C@@H](O)[C@H](O)[C@@H](O)[C@H](O)CO` [D-idose, reference compound], the “substrate (acceptor) quality in words” value in data set [1] (recombinant α1,2-ManT) is listed as “not substrates”.

As to `O=C[C@@H](O)[C@@H](O)[C@H](O)CO` [D-lyxose, reference compound], in data set [1] (recombinant α1,2-ManT), the “substrate (acceptor) quality in words” value is reported as “not substrates”.

In the case of `CO[C@H]1O[C@H](COS(=O)(=O)c2ccc(C)cc2)[C@@H](O)[C@H](O)[C@@H]1O` [Compound 12, 6-Tosyl-ManαOMe], the Vrelative in data set [1] (acceptor with GDP-Man) was 0.00.

For the molecule `O=[N+]([O-])c1ccc(O[C@H]2O[C@H](CO)[C@@H](O)[C@H](O)[C@@H]2O)cc1` [Compound 13, p-nitrophenyl α-mannopyranoside, reference compound], in data set [1] (acceptor with GDP-Man), the Vrelative is 0.00. In addition, in data set [1] (recombinant α1,2-ManT), the “substrate (acceptor) quality in words” value was “not substrates”.

As for `OC[C@H]1NC[C@@H](O)[C@@H](O)[C@@H]1O` [1-deoxymannojirimycin, reference compound], in data set [1] (recombinant α1,2-ManT), the “inhibitor of α1,2-ManT in words” value is “nor an inhibitor” and the “substrate (acceptor) quality in words” value is “neither a substrate”.

Consider `COC(=O)C(NC(=O)C(N)C(C)OC1OC(CO)C(O)C(O)C1O)C(C)C` (stereo not drawn) [Compound 8, Thr(α-Man)-Val-OMe], for which the Vrelative in data set [1] (acceptor with GDP-Man) was 0.68. Moreover, the “substrate (acceptor) quality in words” value in data set [1] (recombinant α1,2-ManT) is “good substrates”.

Turning to “Boc-Try-Thr(α-Man)-Val-OMe [Compound 10]”, the Km in data set [1] (setting [6]) and in data set [1] (setting [5]) was 0.7 mM throughout. In data set [1] (acceptor with GDP-Man), the Vrelative is listed as 0.35. Further, in data set [1] (ratio of Km values), the “Km, times less than that of Compound 7” value came to 10 times. Besides, the “Km, times smaller than that of ManαOMe (Compound 1)” value in data set [1] (ratio of Km values) was determined as 80 times.

As to `CO[C@H]1O[C@H](C)[C@@H](O)[C@H](O)[C@@H]1O` [Compound 4, Methyl 6-Deoxy-α-D-mannopyranoside], the Vrelative in data set [1] (acceptor with GDP-Man) is listed as 0.06. Moreover, the “substrate (acceptor) quality in words” value in data set [1] (recombinant α1,2-ManT) is reported as “poor substrates”.

With `CO[C@H]1O[C@H](CO)[C@@H](O)[C@H](O)[C@@H]1O[C@H]1O[C@H](CO)[C@@H](O)[C@H](O)[C@@H]1O` [Compound 3, Manα1,2ManαOMe], the Michaelis-Menten constant (Km) in data set [1] (setting [6]) and in data set [1] (setting [5]) was 28 mM throughout. Besides, in data set [1] (acceptor with GDP-Man), the Vrelative is 0.62.

B1: recombinant α1,2-ManT: water-dispersible recombinant α1,2-mannosyltransferase catalytic domain, residues about 31-442 of the S. cerevisiae enzyme, expressed in E. coli (protein)
chain: RTQQYIPSSISAAFDFTSGSISPEQQVISEENDAKKLEQSALNSEASEDSEAMDEESKALKAAAEKADAPIDTKTTMDYITPSFANKAGKPKACYVTLVRNKELKGLLSSIKYVENKINKKFPYPWVFLNDEPFTEEFKEAVTKAVSSEVKFGILPKEHWSYPEWINQTKAAEIRADAATKYIYGGSESYRHMCRYQSGFFWRHELLEEYDWYWRVEPDIKLYCDINYDVFKWMQENEKVYGFTVSIHEYEVTIPTLWQTSMDFIKKNPEYLDENNLMSFLSNDNGKTYNLCHFWSNFEIANLNLWRSPAYREYFDTLDHQGGFFYERWGDAPVHSIAAALFLPKDKIHYFSDIGYHHPPYDNCPLDKEVYNSNNCECDQGNDFTFQGYSCGKEYYDAQGLVKPKNWKKFRE
Take B1: the specific activity entry in data set [3] is “about 1 unit/mg”. For the same molecule, the activity retained entry in “Enzyme stability study” is recorded as “more than 90%”. The remaining activity result was “about 80%” in data set [4] (10-percent DMF-buffer solution) and “about 50%” in data set [4] (10 percent acetonitrile-buffer solution). In data set [4] (DMF or acetonitrile increased to 20 percent), the loss of activity is 95%. In data set [4] (acetone-buffer solution), this molecule returned a tolerated acetone concentration of at most 20%. Besides, the tolerated methanol concentration result in data set [4] (methanol-buffer solution) is “up to 30%”.
